The subject of assay [1] is A549 human lung cancer cell. Briefly: SRB cell proliferation assay, A549. The format is cell-based. As to conditions: A549, 72 h, 3 days. How it is done:
(§1) ^a A series of indirubin derivatives were tested at five concentrations for their effects on various human cancer cell lines using SRB assay, as described in the Experimental Section.
(§2) Cells (A549, HT1080, HCT116, K562, SNU638, KB, MCF-7) were counted, diluted to 5×10^4 cells/mL with fresh medium (MEME, DMEM or RPMI containing 10% FBS), and added 190 μL of cell suspension to 96-well plates containing various concentrations of test compounds (10 μL in 10% aqueous DMSO). Test plates were incubated for 3 days at 37° C. in CO2 incubator. For zero day controls, cells were incubated for 30 min at 37° C. in CO2 incubator. All treatments were performed in triplicate. After the incubation periods, cells were fixed with 50 μL of cold 50% TCA at 4° C. for 30 min, washed 5 times with tap water, and air-dried. The fixed cells were stained with 0.4% SRB solution in 1% aqueous acetic acid at room temperature for 1 h. Free SRB solution was then removed by rinsing 5 times with 1% acetic acid, and air-dried. The bound dye was dissolved with 200 µL of 10 mM Tris-base (pH 10.0), and absorbance was determined at 515 nm using an ELISA microplate reader. Finally, the absorbance values obtained with each of the treatment procedures were averaged, and the average values obtained with the zero day control were subtracted.

Assay [2] deals with HT1080 human fibro sarcoma cell. The experiment in a line: SRB cell proliferation assay, HT1080. The class given is cell-based. To be noted: HT-1080, 72 h, 3 days. How it is done:
as §1, §2

Assay [3] concerns several human cancer cell lines. The experiment in a line: SRB cell proliferation assay, summary over cell lines. The format is cell-based. As to the method:
as §1, §2

The test system of assay [4] is KB human nasopharyngeal cancer cell. Briefly: SRB cell proliferation assay, KB. The format is cell-based. As to conditions: 72 h, 3 days. How it is done:
as §1, §2

Assay [5] concerns SNU638 human stomach cancer cell. The experiment in a line: SRB cell proliferation assay, SNU638. The class given is cell-based. As to conditions: SNU-638, 72 h, 3 days. How it is done: as §1, §2
Assay [6] relates to HCT116 human colon cancer cell. The experiment in a line: SRB cell proliferation assay, HCT116. The format is cell-based. As to conditions: 3 days. As to the method: as §1, §2
The target in a further assay is T1, CDK2/cyclin E (Homo sapiens, UniProt P24941).
T1 construct: purchased Milipore (Billerica, Mass.)
Briefly: CDK2/cyclin E kinase assay. The format is biochemical. As to conditions: for IC50: ten concentrations, dose response curves, read-out: CDK2/cyclin E inhibitory activity IC50. As to the method: CDK1/cyclin B, CDK2/cyclin E were purchased from Milipore (Billerica, Mass.). The kinase activity was tested in buffer (8 mM MOPS pH 7.0, 0.2 mM EDTA, 10 mM MgAcetate), with 0.1 mg/mL histone H1, in the presence of 45 µM [—^33P] ATP (500 cpm/pmol) for CDK1 or 120 μM [γ—^33P] ATP (500 cpm/pmol) for CDK2 in a final reaction volume of […]. The reaction was initiated by the addition of the MgATP mix. After incubation for 40 min at 30° C., the reaction was stopped by the addition of 5 μL of 3% phosphoric acid solution. 10 μL aliquots of supernatant were spotted onto 2.5 cm×3 cm pieces of Whatman […] phosphocellulose paper, and 20 s later, the filters were washed three times for 5 min in 75 mM phosphoric acid and once in methanol prior to drying. The […] filters were counted in the presence of 1 mL of ACS (Amersham) scintillation fluid. The activities are usually expressed as a percentage of the maximal activity, i.e., in the absence of inhibitors. Controls were applied with appropriate dilutions of DMSO.

Assay [7] relates to MCF-7 human breast cancer cell. Briefly: SRB cell proliferation assay, MCF-7. As to conditions: MCF7, 72 h, 3 days. The format is cell-based. As to the method:
as §1, §2

The subject of the next assay is K562 human leukemia cell. Briefly: SRB cell proliferation assay, K562. As to conditions: K562, 72 h, 3 days. The class given is cell-based. How it is done:
as §1, §2

The test system of another assay is CDK1. To be noted: from a report; read-out: CDK1 inhibitory activity IC50; cited from earlier work.
Assay [8] deals with T2, c-Met, Met M1250T, Ron, VEGF2, EGFR, TrkA, PI3Kγ, IKKβ Insulin receptor, Aurora A.
T2 construct: other: 10 μM
Briefly: Kinase panel screening (HTRF). The class given is biochemical. As to conditions: 10 μM. How it is done: Inhibition of kinase activity against a variety of recombinant kinases (c-Met, Met M1250T, Ron, VEGF2, EGFR, TrkA, PI3Kγ, IKKβ Insulin receptor, Aurora A) was measured using homogeneous time-resolved fluorescence (HTRF) assays. Briefly, assays are based on the phosphorylation of peptide substrates in the presence of ATP. Resulting phosphorylated substrates are detected by TR-FRET (Time Resolved-Fluorescence Resonance Energy Transfer) signal. Recombinant proteins containing kinase domain were purchased from Millipore (Billerica, Mass.). Optimal enzyme, ATP, and substrate concentrations were established for each enzyme using HTRF KinEASE kit (Cisbio) according to the manufacturer's instruction. Assays are consisted of enzymes mixed with serially diluted compounds and peptide substrates in kinase reaction buffer (250 mM HEPES (pH 7.0), 0.5 mM orthovanadate, 0.05% BSA, 0.1% NaN3). Following the addition of reagents for detection, TR-FRET signal was measured using EnVision multi-label reader (Perkin Elmer, Waltham, Mass.).
On the technique in general: TR-FRET usually uses a lanthanide donor and a delayed reading to cut background.

Consider `COc1ccc2c(c1)C(=NO)/C(=C1/C(=O)Nc3ccc(F)cc31)N2` [Compound 16b, (2′Z, 3′E)-5′-Methoxy-5-fluoro-indirubin-3′-oxime], for which the IC50 is 6.71 µM in assay [1]; 4.84 µM in assay [2]; greater than 20 µM in assay [4]; 13.6 µM in [5]; 3.59 µM in [6] (Homo sapiens, HCT-116, 72 h); 4.12 µM on CDK2/cyclin E. In addition, the results for the IC50 (in [7]; with K562 human leukemia cell) were greater than 20 µM and 5.29 µM, respectively. For the same molecule, the “anti-proliferative activity in words” value in assay [3] is on record as “moderate anti-proliferative activity”.
Regarding `O=C1Nc2ccc([N+](=O)[O-])cc2C1=C1Nc2ccc(Br)cc2C1=NO` [Compound 2, 5′-Bromo-5-nitro-indirubin-3′-oxime, reference compound], the IC50 in assay [1] was 16.9 µM; in [2], 1.45 µM; in [4] it was 1.16 µM; in [5] it was 1.14 µM; in assay [6] (Homo sapiens, HCT-116, 72 h) it was 0.45 µM; with CDK1, 0.19 µM. Moreover, the IC50 in assay [7] stood at 0.95 µM; in the assay with K562 human leukemia cell it was 0.77 µM.
As to `Cc1ccc2c(c1)C(=NO)/C(=C1/C(=O)Nc3ccc([N+](=O)[O-])cc31)N2` [Compound 14b, (2′Z, 3′E)-5′-Methyl-5-nitro-indirubin-3′-oxime], the IC50 was greater than 20 µM in assay [1]; 3.92 µM in assay [2]; 0.8 to 1 µM in assay [3] (Homo sapiens, range over cell lines, read-out: anti-proliferative IC50, range over cancer cell lines); 2.1 µM in [4]; 1.06 µM in assay [5]; 1.41 µM in assay [6] (Homo sapiens, HCT-116, 72 h). In addition, the IC50 on CDK2/cyclin E stood at 0.00868 µM; in assay [7], 1.06 µM; in the assay on K562 human leukemia cell, 0.8 µM. In addition, the “selectivity for CDK2 over CDK1” value on CDK2/cyclin E (CDK2 vs CDK1) was determined as 7 fold. Moreover, the “CDK2 inhibitory effect relative to 16b” value on CDK2/cyclin E (enhanced compared with 16b) came out at 270 fold.
For `O=C1Nc2ccc([N+](=O)[O-])cc2/C1=C1/Nc2ccc(Cl)cc2C1=NO` [Compound 12b, (2′Z, 3′E)-5′-Chloro-5-nitro-indirubin-3′-oxime], the IC50 was 15.6 µM in assay [1]; 1.25 µM in assay [2]; 1.1 µM in assay [4]; 1.16 µM in assay [5]; 0.33 µM in assay [6]; roughly 0.3 µM in assay [6] (Homo sapiens, HCT-116, 72 h). The IC50 on CDK2/cyclin E was determined as 0.0235 µM; in assay [7] it was 0.5 µM; in the assay on K562 human leukemia cell it was 0.56 µM. Also, the “inhibitory activity against kinase panel” value in [8] was “negligible inhibitory activities”.

These data come from patent US8859783B2, “Indirubin-3′-oxime derivatives as potent cyclin dependent kinase inhibitors” (Anygen Co., Ltd., priority 2010, dated 2014).
